The text below walks through data of patent publication EP1099690A1, “MONOCYCLIC $g(b)-LACTAM COMPOUNDS AND CHYMASE INHIBITORS CONTAINING THE SAME” (SHIONOGI & CO., LTD., priority 1998, dated 2000).

Structures are written as SMILES.

The term IC50 denotes the concentration that inhibits the measured activity by half. Read a high IC50 as lower potency.

This assay addresses T1, human chymase (Homo sapiens, UniProt P23946).
T1 sequence (P23946 22-247): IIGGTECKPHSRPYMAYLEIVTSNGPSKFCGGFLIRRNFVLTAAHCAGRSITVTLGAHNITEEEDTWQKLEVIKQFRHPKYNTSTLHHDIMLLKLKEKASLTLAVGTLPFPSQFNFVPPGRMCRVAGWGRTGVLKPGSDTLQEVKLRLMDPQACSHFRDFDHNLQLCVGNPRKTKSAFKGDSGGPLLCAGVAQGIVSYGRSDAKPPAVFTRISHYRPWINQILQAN
The assay is described as follows: Chymase inhibitory activity (Suc-Ala-Ala-Pro-Phe-pNA substrate, absorption 405 nm). The note with it: purified human chymase, 30 minutes at 37 °C preincubation, substrate 0.5 mM. The class given is biochemical. The protocol: Compound (I) was dissolved in dimethylsulfoxide (DMSO) at 10^-2 M. Concentration of DMSO for activity measurement was 1 %.
Compound (I) dissolved in DMSO and purified human chymase (Takai et al., Clinica Chimica Acta 265, 1997, 13-20) were added to a buffer (0.1M Tris-HCl, 1.8M NaCl pH8.0). After the mixture was treated for 30 minutes at 37 °C, Suc-Ala-Ala-Pro-Phe-pNA (BACHEM Feinchemikalien AG) was added at 0.5 mM as a substrate and the mixture was enzymatically reacted at 37 °C.
After the reaction, the absorption intensity (405 nm) of the solution was measured to calculate the inhibitory rate.

As to `C[C@@H](NC(=O)N1C(=O)[C@@H](Cc2ccccc2)[C@@H]1Sc1ccc(C(=O)N2CCN(C)CC2)cc1)c1ccccc1` [Compound I-58], the IC50 was found to be 5.7 nM. Under `COc1ccccc1C[C@@H]1C(=O)N(C(=O)N[C@H](C)c2ccccc2)[C@@H]1Oc1ccc(C(=O)N2CCN(C)CC2)cc1` [Compound I-129] stands 1.02 nM; under `COc1ccccc1C[C@@H]1C(=O)N(C(=O)N[C@H](C)c2ccccc2)[C@H]1Oc1ccc(C(=O)N2CCN(c3ncccn3)CC2)cc1` [Compound I-107], 0.68 nM; under `CCOc1ccccc1C[C@@H]1C(=O)N(C(=O)NC(c2ccccc2)c2ccccc2)[C@H]1Oc1ccc(C(=O)N2CCN(C3CCCCC3)CC2)cc1` [Compound I-145], 10.8 nM. Under `CCOc1ccccc1C[C@@H]1C(=O)N(C(=O)NC(c2ccccc2)c2ccccc2)[C@H]1Oc1ccc(C(=O)N2CCOCC2)cc1` [Compound I-148] stands 0.55 nM; under `C[C@@H](NC(=O)N1C(=O)[C@@H](Cc2ccccc2)[C@@H]1Oc1ccc(C(=O)OCCN(C)C)cc1)c1ccccc1` [Compound I-47], 3 nM. Under `CCCC(NC(=O)N1C(=O)[C@@H](Cc2ccccc2OC)[C@@H]1Oc1ccc(C(=O)N2CCC(N3CCCCC3)CC2)cc1)c1ccc2c(c1)OCO2` (stereo partly shown) [Compound I-121] stands 0.29 nM; under `C[C@@H](NC(=O)N1C(=O)[C@@H](Cc2ccccc2)[C@@H]1Oc1ccc(CC(=O)O)cc1)c1ccccc1` [Compound I-49], 4.3 nM; under `COc1ccccc1C[C@@H]1C(=O)N(C(=O)NC(c2ccccc2)c2ccccc2)[C@H]1Oc1ccc(C(=O)O)cc1` [Compound I-126], 2.95 nM. As for `C[C@@H](NC(=O)N1C(=O)[C@@H](Cc2ccccc2)[C@H]1Oc1ccc(C(=O)N[C@@H](Cc2ccccc2)C(=O)O)cc1)c1ccccc1` [Compound I-77], half-maximal inhibition (IC50) was put at 0.26 nM. Under `C=CCNC(=O)c1ccc(O[C@H]2[C@H](Cc3ccccc3)C(=O)N2C(=O)N[C@H](C)c2ccccc2)cc1` [Compound I-44] stands 3.8 nM; under `COc1ccccc1C[C@@H]1C(=O)N(C(=O)N[C@@H](C)c2ccccc2)[C@@H]1Oc1ccc(C(=O)N2CCN(C)CC2)cc1` [Compound I-134], 0.1 nM; under `C[C@@H](NC(=O)N1C(=O)[C@@H](Cc2ccccc2)[C@H]1Oc1ccc(C(=O)N[C@@H](Cc2ccccc2)C(=O)OCc2ccccc2)cc1)c1ccccc1` [Compound I-74], 8.6 nM.

In the case of `COc1ccccc1C[C@@H]1C(=O)N(C(=O)N[C@H](C)c2ccccc2)[C@H]1Oc1ccc(C(=O)N2CCN(C3CCCCC3)CC2)cc1` [Compound I-108], the half-inhibitory concentration (IC50) came to 0.48 nM. Under `CCOc1ccccc1C[C@@H]1C(=O)N(C(=O)NC(c2ccccc2)c2ccccc2)[C@H]1Oc1ccc(/C=C/C(=O)O)cc1` [Compound I-155] stands 3.8 nM; under `C[C@@H](NC(=O)N1C(=O)[C@@H](Cc2ccccc2)[C@H]1Oc1ccc(C(=O)N2CCN(Cc3ccc4c(c3)OCO4)CC2)cc1)c1ccccc1` [Compound I-76], 2.4 nM; under `CCOc1ccccc1C[C@@H]1C(=O)N(C(=O)NC(c2ccccc2)c2ccccc2)[C@H]1Oc1ccc(C(=O)O)c(C(=O)O)c1` [Compound I-152], 4.1 nM.

Regarding `CC(OC(=O)c1ccc(O[C@@H]2[C@H](Cc3ccccc3)C(=O)N2C(=O)N[C@H](C)c2ccccc2)cc1)c1ccccc1` (stereo partly shown) [Compound I-71], the concentration for half-maximal inhibition (IC50) stood at 19 nM. The compound `COc1ccccc1C[C@@H]1C(=O)N(C(=O)N[C@H](C)c2ccccc2)[C@H]1Oc1ccc(C(=O)N2CCN(C)CC2)cc1` [Compound I-104] displayed a half-maximal inhibitory concentration (IC50) of 0.19 nM. The figure for `CCCc1ccccc1C[C@@H]1C(=O)N(C(=O)NC(c2ccccc2)c2ccccc2)[C@H]1Oc1ccc(C(=O)O)cc1` [Compound I-161] is 18 nM; for `C[C@@H](NC(=O)N1C(=O)[C@@H](Cc2ccccc2)[C@@H]1Oc1cccc(C(=O)N2CCN(C)CC2)c1)c1ccccc1` [Compound I-56] it is 2.95 nM. Regarding `CCC1(Cc2ccccc2)C(=O)N(C(=O)NC(C)c2ccccc2)C1Oc1ccc(C(=O)N2CCN(C)CC2)cc1` (stereo not shown) [Compound I-173], the half-inhibitory concentration (IC50) came to 190 nM. The figure for `C[C@@H](NC(=O)N1C(=O)[C@@H](Cc2ccccc2)[C@@H]1Oc1ccc(CC(=O)OCCN(C)C)cc1)c1ccccc1` [Compound I-51] is 30 nM; for `C[C@@H](NC(=O)N1C(=O)[C@@H](Cc2ccccc2)[C@@H]1Oc1ccc(/C=C/C(=O)O)cc1)c1ccccc1` [Compound I-52] it is 5.2 nM.

As to `CC(NC(=O)N1C(=O)[C@@H](Cc2ccccc2)[C@@H]1Oc1ccc(C(N)=O)cc1)c1ccccc1` (stereo partly shown) [Compound I-95], inhibition was half-maximal at 16 nM (IC50). Under `COc1ccccc1C[C@@H]1C(=O)N(C(=O)N[C@H](C)c2ccccc2)[C@H]1Oc1ccc(C(=O)O)cc1` [Compound I-102] stands 1 nM; under `C[C@@H](NC(=O)N1C(=O)[C@@H](Cc2ccccc2)[C@@H]1Sc1ccc(C(=O)O)cc1)c1ccccc1` [Compound I-57], 24 nM. Under `CCOc1ccccc1C[C@@H]1C(=O)N(C(=O)NC(c2ccc(OC)cc2)c2ccc(OC)cc2)[C@H]1Oc1ccc(C(=O)O)cc1` [Compound I-160] stands 15 nM; under `C[C@H](NC(=O)N1C(=O)[C@H](Cc2ccccc2)[C@H]1Oc1ccc(C(=O)N2CCN(C)CC2)cc1)c1ccccc1` [Compound I-89], 18.5 nM; under `C[C@@H](NC(=O)N1C(=O)[C@@H](Cc2ccccc2)[C@@H]1Oc1ccc(C(=O)N(C)CCN(C)C)cc1)c1ccccc1` [Compound I-38], 2.2 nM. Under `CCOc1ccccc1C[C@@H]1C(=O)N(C(=O)N[C@H](CC)c2ccccc2)[C@H]1Oc1ccc(C(=O)O)cc1` [Compound I-135] stands 2.1 nM; under `COc1ccccc1C[C@@H]1C(=O)N(C(=O)N[C@H](C)c2ccccc2)[C@H]1Oc1ccc(C(=O)OCc2ccncc2)cc1` [Compound I-105], 2.8 nM; under `C[C@@H](NC(=O)N1C(=O)[C@@H](Cc2ccccc2)[C@@H]1Oc1cccc(C(=O)O)c1)c1ccccc1` [Compound I-55], 17 nM. In turn, `CC[C@@H](NC(=O)N1C(=O)[C@@H](Cc2ccccc2OC)[C@@H]1Oc1ccc(C(=O)O)cc1)c1ccccc1` [Compound I-113] yielded an IC50 of 0.5 nM. Under `CCOc1ccccc1C[C@@H]1C(=O)N(C(=O)NC(c2ccccc2)c2ccccc2)[C@H]1Oc1ccc(C(=O)NS(=O)(=O)c2ccccc2)cc1` [Compound I-151] stands 4.6 nM; under `C[C@@H](NC(=O)N1C(=O)[C@@H](Cc2ccccc2)[C@H]1Oc1ccc(C(=O)NNc2ccccc2)cc1)c1ccccc1` [Compound I-73], 0.92 nM; under `COc1ccccc1C[C@@H]1C(=O)N(C(=O)N[C@@H](C)c2ccccc2)[C@H]1Oc1ccc(C(=O)N2CCN(C)CC2)cc1` [Compound I-111], 11 nM.

In turn, `CC[C@H](NC(=O)N1C(=O)[C@@H](Cc2ccccc2OC)[C@@H]1Oc1ccc(C(=O)O)cc1)c1ccccc1` [Compound I-115] showed an IC50 of 18 nM. Under `C[C@@H](NC(=O)N1C(=O)[C@@H](Cc2ccccc2)[C@@H]1Oc1ccc(C(=O)N2CCOCC2)cc1)c1ccccc1` [Compound I-43] stands 1.08 nM; under `C[C@@H](NC(=O)N1C(=O)[C@@H](Cc2ccccc2)[C@H]1Oc1ccc(C(=O)OCc2ccncc2)cc1)c1ccccc1` [Compound I-75], 1.2 nM; under `C[C@@H](NC(=O)N1C(=O)[C@@H](Cc2ccccc2)[C@@H]1Oc1ccc(C(=O)Nc2ccccc2)cc1)c1ccccc1` [Compound I-46], 31 nM. In turn, `CCOc1ccccc1C[C@@H]1C(=O)N(C(=O)NC(c2ccccc2)c2ccccc2)[C@H]1Oc1ccc(CC(=O)O)cc1` [Compound I-154] had an IC50 of 2.5 nM. The figure for `C[C@@H](NC(=O)N1C(=O)[C@@H](Cc2ccccc2)[C@H]1Oc1ccc(C(=O)N2CCOCC2)cc1)c1ccccc1` [Compound I-67] is 0.18 nM.

Compound `C[C@@H](NC(=O)N1C(=O)[C@@H](Cc2ccccc2)[C@H]1Sc1ccccc1)c1ccccc1` [Compound I-85] returned an IC50 of 2.4 nM. Compound `C[C@@H](NC(=O)N1C(=O)[C@@H](Cc2ccccc2)[C@H]1Oc1ccc(C(=O)NCc2ccccc2F)cc1)c1ccccc1` [Compound I-68] gave an IC50 of 0.68 nM. For the compound `CC(=O)O[C@H]1[C@H](Cc2ccccc2)C(=O)N1C(=O)NC(C)c1ccccc1` (stereo partly shown) [Compound I-36], 4.2 nM corresponded to half-maximal inhibition (IC50). Under `C[C@@H](NC(=O)N1C(=O)[C@H](Cc2ccccc2)[C@H]1Oc1ccc(C(=O)N2CCN(C)CC2)cc1)c1ccccc1` [Compound I-87] stands 0.8 nM. Under `CCN(Cc1ccccc1)C(=O)c1ccc(O[C@@H]2[C@H](Cc3ccccc3)C(=O)N2C(=O)N[C@H](C)c2ccccc2)cc1` [Compound I-70] stands 1.28 nM; under `COc1ccccc1C[C@@H]1C(=O)N(C(=O)N[C@@H](C)c2ccccc2)[C@@H]1Oc1ccc(C(=O)O)cc1` [Compound I-130], 1.18 nM. The figure for `COc1ccccc1C[C@@H]1C(=O)N(C(=O)N[C@@H](C)c2ccccc2)[C@@H]1Oc1ccc(C(=O)N2CCN(C)CC2)cc1` [Compound I-132] is 0.25 nM; for `CCOc1ccccc1C[C@@H]1C(=O)N(C(=O)NC(c2ccc(F)cc2)c2ccc(F)cc2)[C@H]1Oc1ccc(C(=O)O)cc1` [Compound I-159] it is 14.5 nM; for `COc1ccccc1C[C@@H]1C(=O)N(C(=O)NC2(c3ccccc3)CC2)[C@H]1Oc1ccc(C(=O)O)cc1` [Compound I-125] it is 19 nM.
